Data published in patent publication US8609043B2, “Use of a container of an inorganic additive containing plastic material” (M & P Patent Aktiengesellschaft, priority 2001, dated 2013).

Assay: Stability of formulations containing testosterone in containers of different material (HPLC)
Type: physicochemical
Procedure: As an example for the aforementioned considerations in table 1 are shown the results of tests investigating the stability of formulations containing the steroid hormone testosterone in containers of different material.
The term “remaining drug after storage” is the amount of testosterone remaining in the formulation after storage for 22 hours. The remaining drug was measured by HPLC technique.

C[C@]12CC[C@H]3[C@@H](CCC4=CC(=O)CC[C@@]43C)[C@@H]1CC[C@@H]2O [testosterone]
Remaining drug after storage (%) (Methanolic formulation, primary packaging material Glass, storage for 22 hours): 100%
Remaining drug after storage (%) (Oil-based formulation, primary packaging material Glass, storage for 22 hours): ≈80%
Remaining drug after storage (%) (Oil-based formulation, primary packaging material LDPE + TiO2, storage for 22 hours): 100%
Remaining drug after storage (%) (Oil-based formulation, primary packaging material LDPE, storage for 22 hours): ≈30%
Remaining drug after storage (%) (Oil-based formulation, primary packaging material PP, storage for 22 hours): ≈50%
